The source of these data is patent publication US10238622B2, “Methods of treating and preventing/reducing the likelihood of Mesial temporal lobe epilepsy (TLE)” (priority 2009, dated 2019).

In test [1] the test system is Li-pilocarpine SE rats. Briefly: Lithium-pilocarpine status epilepticus induction, drugs given 1 hour after SE onset. The class given is in vivo, rat. As to conditions: Diazepam 4 mg/kg i.m.; for effect on seizures (status epilepticus): given 1 hour after SE onset, Atropine sulfate 10 mg/kg s.c. Here is the method: (§1) All procedures were approved by the Institutional Animal Care and Use Committee at the University of New Mexico Health Sciences Center and were in accordance with National Institutes of Health Guide for the Care and Use of Laboratory Animals. Our protocol for the experiments here was a slight modification of a protocol published by Andre et al. (Andre et al., 2007). Twenty four hours prior to seizure induction, male Wistar rats, 2-3 months old, were administered s.c. 3 mmol/kg lithium chloride dissolved in isotonic NaCl saline Pilocarpine was then administered s.c. (25 mg/kg in isotonic NaCl). Once generalized limbic convulsions began, subcutaneous needle EEG electrodes were placed to confirm the development of status epilepticus (SE), defined as the occurrence of continuous high amplitude EEG spiking (Ormandy et al., 1989). These needles were fashioned from 25 gauge hypodermic needles (Becton Dickinson), with the hub cut off and bent at 60 degree angles so they will stay in place. One needle was inserted subcutaneously in the scalp over the parietal cortex and the other, which served as the reference electrode, over the scapula. […] Recording was then generally discontinued. Atropine sulfate (10 mg/kg s.c.) and Diazepam (4 mg/kg i.m.) were administered in order to improve survival, decrease anxiety and induce muscle relaxation. […] 12 hours after SE onset the EEG was recorded again for 5-10 min, and all rats had intermittent or organized, i.e. bursts of EEG spiking.

For test [2], the system named is pilocarpine SE rat. Briefly: Seizures provoked by open field exposure 6 weeks after end of chronic bumetanide treatment (FIG. 20). Format: in vivo. As to conditions: 27 weeks post SE, 6 weeks after end of bumetanide treatment, within 15 min, n=6 rats per group. Here is the method: as §1, with “discontinued.” for “discontinued. Atropine sulfate (10 mg/kg s.c.) and Diazepam (4 mg/kg i.m.) were administered in order to improve survival, decrease anxiety and induce muscle relaxation.”, “spiking. […]” for “spiking.”

Test [3] deals with Li-pilocarpine SE rats. Briefly: Spontaneous seizures with chronic bumetanide via the drinking water, 8 hour video recording (FIG. 18, 19). Format: in vivo, rat. Here is the method:
as §1, with “discontinued.” for “discontinued. Atropine sulfate (10 mg/kg s.c.) and Diazepam (4 mg/kg i.m.) were administered in order to improve survival, decrease anxiety and induce muscle relaxation.”, “spiking. […]” for “spiking.”

For test [4], the system named is adult rat TLE model. As to conditions: infusion of very high doses, first 2 weeks after SE; cited from earlier work.
Test [5] has as its system EC L5 neurons. Briefly: Polysynaptic burst responses to single synaptic stimulation in acute brain slices 3 weeks post SE. Format: cell-based, rat. Here is the method:
(§2) All experiments were performed on acute horizontal brain slices containing temporal neocortex, entorhinal cortex, subiculum and the ventral hippocampus. Control, or rats 2 or 3 weeks post-seizure, were anesthetized deeply with a mixture of ketamine and xylazine (85 and 15 mg/ml, respectively) and decapitated. The brains were removed rapidly and placed in an oxygenated (95% O2/5% CO2) ice-cold cutting solution containing (in mM): 3 KCl, 1.25 NaH2PO4, 6 MgSO4, 26 NaHCO3, 0.2 CaCl2, 10 glucose, 220 sucrose, and 0.43 ketamine. Slices (350 μm) were cut in ice-cold cutting solution with a vibratome (Dosaka DTK-1000) and transferred from there into Artificial Cerebro-Spinal Fluid (ACSF, in mM: 126 NaCl, 3 KCl, 1.25 NaH2PO4, 1 MgSO4, 26 NaHCO3, 2 CaCl2, and 10 glucose) equilibrated with 95% O2/5% CO2 at 34° C. temperature for recovery. After 1 hr ACSF was changed again, and the slices were held at room temperature until used for recording.
(§3) Individual slices were transferred to a recording chamber mounted on a fixed-stage microscope (Zeiss Axioskop, Jena, Germany) and superfused with warmed (34° C.), oxygenated ACSF at 2 ml/min. Intracellular recordings were made from EC layer 5 neurons with borosilicate glass sharp microelectrodes (80-150 MΩ) filled with either 1 M K2SO4, or 0.5 M potassium acetate/0.5 M KCl for lower electrode resistance, or 2 M CsSO4/0.1 M KCl for improved space clamp. […] Therefore all final recordings/data for bumetanide effects on GABAergic PSP reversal potential were obtained with microelectrodes filled with 1 M K2SO4 or 2 M CsSO4/0.1 M KCl.
(§4) Neurons were impaled in the medial entorhinal cortex just above the angular bundle, up to ¼ of cortex thickness, using a Nanostepper micropositioner (Scientific Precision Instruments, Oppenheim, Germany). Recordings were made using an Axoclamp 2B amplifier and digitized and recorded using an Axon Instruments Digidata 1322A (Molecular Devices, Union City, Calif.). Neurons with a RMP negative to −68 mV were tested with hyperpolarizing pulses to ˜−85 mV for the presence of Ih indicative of pyramidal neurons (Egorov et al., 2002; Egorov et al., 2003). […] Concentric bipolar stimulating electrodes (200 μm diameter, FHC Inc., ME, USA) were placed in layer 5 of EC, ˜150-250 μm from the recording electrode. Stimuli (70-100 μs, 100-800 nA) were controlled by a Master 8 programmable pulse generator connected to a stimulus isolation unit (A.M.P.I., Jerusalem, Israel). Full input-output relations for the EPSP and the IPSP were recorded, and stimulation intensities giving 70-90% of maximal response were used. Where indicated stimulation intensity was reduced to elicit 5-10% of maximal response.
For these determinations, a polysynaptic burst was defined as a post-synaptic response lasting more than 150 ms at half amplitude, elicited from −75 mV<RMP<−68 mV.

Test [6] concerns EC L5 neurons. Nature of the test: GABAAergic PSP reversal potential, sharp microelectrode recording in acute brain slices 3 weeks post SE. Format: cell-based, rat. Here is the method:
as §2, §3, §4

Test [7] relates to post SE rats. Briefly: Entering-a-dark box behavior in an open field (FIG. 21). Particulars: chronic bumetanide from day 16 post SE for 12 weeks, 8 rats; control rats 78%, untreated post SE rats 15%. Format: in vivo, rat. Here is the method:
as §1, with “discontinued.” for “discontinued. Atropine sulfate (10 mg/kg s.c.) and Diazepam (4 mg/kg i.m.) were administered in order to improve survival, decrease anxiety and induce muscle relaxation.”, “spiking. […]” for “spiking.”

The subject of test [8] is Li-pilocarpine SE rats. Nature of the test: Seizures after acute bumetanide injection, video recordings, 12-17 weeks after SE (FIG. 12). The class given is in vivo, rat. As to conditions: bumetanide 0.2 mg/kg body weight i.p., 12-17 weeks after Li-pilocarpine SE, n=5 rats. How it is done:
All procedures were approved by the Institutional Animal Care and Use Committee at the University of New Mexico Health Sciences Center and were in accordance with National Institutes of Health Guide for the Care and Use of Laboratory Animals. Our protocol for the experiments here was a slight modification of a protocol published by Andre et al. (Andre et al., 2007). Twenty four hours prior to seizure induction, male Wistar rats, 2-3 months old, were administered s.c. 3 mmol/kg lithium chloride dissolved in isotonic NaCl saline Pilocarpine was then administered s.c. (25 mg/kg in isotonic NaCl). Once generalized limbic convulsions began, subcutaneous needle EEG electrodes were placed to confirm the development of status epilepticus (SE), defined as the occurrence of continuous high amplitude EEG spiking (Ormandy et al., 1989). These needles were fashioned from 25 gauge hypodermic needles (Becton Dickinson), with the hub cut off and bent at 60 degree angles so they will stay in place. […] 12 hours after SE onset the EEG was recorded again for 5-10 min, and all rats had intermittent or organized, i.e. bursts of EEG spiking.
Five Li-pilocarpine SE rats were subjected to a sequence of bumetanide or vehicle injections (5% ethanol in physiological saline, i.p., dates given on bottom line), and seizures occurring in the following 8 hours were analyzed by video recordings.

Consider `CN1[C@@H]2CC[C@H]1CC(OC(=O)C(CO)c1ccccc1)C2.CN1[C@@H]2CC[C@H]1CC(OC(=O)C(CO)c1ccccc1)C2.O=S(=O)(O)O` (stereo partly shown) [atropine, Atropine sulfate], for which, in test [1], the “effect on seizures (status epilepticus)” value is on record as “Nor did atropine stop seizures”.
`CCCCNc1cc(C(=O)O)cc(S(N)(=O)=O)c1Oc1ccccc1` [bumetanide]: in test [2], the “seizures provoked by open field exposure as % of time post SE-matched control SE rats” value is on record as “less than 15%”. Besides, in test [3] (bumetanide via the drinking water, 0.65±0.13 mg/day, two other rats had reduced seizures), the “rats in which bumetanide prevented seizures completely” value worked out at 4 rats. Also, the “seizure occurrence as % of seizures in time post SE-matched control SE rats” value in test [3] (three and six weeks after end of 20 weeks chronic bumetanide via drinking water, n=6 rats per group) was 15-22%. The “suppression of SRS by bumetanide treatment” value in test [4] is “complete failure”. The “neurons with a polysynaptic response after washout of bumetanide” value in test [5] (30 min washout, n=14) was determined as 35.1%. In test [5] (bumetanide 10 μM, 3 weeks post SE), the “decrease of response duration at half-maximal amplitude in bumetanide” value is recorded as 36±9 % of the control response. For the same molecule, the “neurons with a polysynaptic response in bumetanide” value in test [5] (bumetanide 10 μM, cells from rats 3 weeks after pilocarpine insult, n=14, 64.8% before drug) is reported as 11.6%. The “response duration at half-maximal amplitude during washout of bumetanide” value in test [5] (recovered to, relative to control response) is on record as 75±11%. Besides, the “E(PSP) of an EC L5 neuron after a 20 min exposure to bumetanide (FIG. 10A)” value in test [6] (3 weeks after SE, CNQX 10 μM and APV 50 μM present, shifts from −29.7 mV) is −60.9 mV. Moreover, the “reduction of driving force at −45 mV versus control rats” value in test [6] (3 weeks after SE, in the presence of bumetanide) is on record as around 42%. The “driving force for Cl− at −45 mV in the presence of bumetanide” value in test [6] (3 weeks after SE, ˜26 mV in control rats) is listed as around 15 mV. Also, in test [6] (3 weeks post SE, n=5), the “absolute voltage average E(PSP) during washout of bumetanide” value is given as −34.2±3.4 mV. For the same molecule, the “average PSP reversal potential relative to RMP” value in test [6] (bumetanide 10 μM, EC L5 neurons 3 weeks post SE, RMP ˜−72 mV, more than +40 mV without drug) is “+10 mV”. The “trials in which rats entered the dark box” value in test [7] was 67 % of trials. Moreover, the “seizures occurring in the 8 hours following injection” value in test [8] is on record as “suppression of seizures”.
As for `CN1C(=O)CN=C(c2ccccc2)c2cc(Cl)ccc21` [Diazepam], in test [1], the muscle relaxation result was “induced muscle relaxation within one hour” and the “effect on seizures (status epilepticus)” value is “did not stop seizures”.
Take picrotoxin: the “number of spikes in polysynaptic burst responses in picrotoxin” value in test [5] (picrotoxin 100 μM, 3 weeks post SE, n=8 neurons, 9.8±0.8 before drug) stood at 7.9±0.7 spikes per response. Also, the “burst duration in picrotoxin, result in words” value in test [5] (picrotoxin 100 μM, FIG. 11D) is on record as “did not reach statistical significance”. Moreover, in test [5] (picrotoxin 100 μM, averages of ten responses, n=8, p=0.094), the “reduction of action potential amplitudes in the averaged burst responses” value came out at 10.5±3.4%. In addition, the “decrease of the duration of polysynaptic bursts” value in test [5] (picrotoxin 100 μM, trend, n=8, p=0.094) amounted to 10.5%.
